Results taken from patent US20210030867A1, “ADJUVANT COMPOSITION CONTAINING ALUMINUM AND VACCINE COMPOSITION CONTAINING THE SAME” (TERUMO KABUSHIKI KAISHA, priority 2015, published 2021).

B1: antigen alone: OVA protein (Ovalbumin, low endotoxin) administered alone as comparative sample (protein, UniProt P01012 2-386, looked up)
Ovalbumin: GSIGAASMEFCFDVFKELKVHHANENIFYCPIAIMSALAMVYLGAKDSTRTQINKVVRFDKLPGFGDSIEAQCGTSVNVHSSLRDILNQITKPNDVYSFSLASRLYAEERYPILPEYLQCVKELYRGGLEPINFQTAADQARELINSWVESQTNGIIRNVLQPSSVDSQTAMVLVNAIVFKGLWEKAFKDEDTQAMPFRVTEQESKPVQMMYQIGLFRVASMASEKMKILELPFASGTMSMLVLLPDEVSGLEQLESIINFEKLTEWTSSNVMEERKIKVYLPRMKMEEKYNLTSVLMAMGITDVFSSSANLSGISSAESLKISQAVHAAHAEINEAGREVVGSAEAGVDAASVSEEFRADHPFLFCIKHIATNAVLFFGRCVSP
modifications: low endotoxin

What was measured:
[1] = Release test (measurement of leakage; membrane-disruption function); details: for pH 5.0 Leakage (%) Lb5.0 Amphipathic substance alone / pH 7.4 Leakage (%) Lb7.4 Amphipathic substance alone: labelled amphipathic substance alone; for pH 5.0 Leakage (%) La5.0 pH-sensitive compound alone / pH 7.4 Leakage (%) La7.4 pH-sensitive compound alone: labelled pH-sensitive compound alone
Method: The term “membrane-disruption function” means a function to bring about release in the release test. The release test described herein is a test consisting of the steps of adding liposomes (dispersion) embracing an aqueous solution containing a quenching substance and a fluorescent substance and a dispersion of an evaluation sample to a properly pH-adjusted aqueous solution, incubating the resulting aqueous solution at 37° C. for 90 minutes or 30 minutes, and measuring the intensity of fluorescence of the incubated aqueous solution. This method makes it possible to measure the amount of the fluorescent substance which has been released from the liposomes, and to confirm the membrane-disruption function of the pH-sensitive carrier. Note that the release test will be described in more detail in the Examples to be described later.
The leakage was evaluated according to the method described in K. Kono et al., Bioconjugate Chem. 2008 19 1040-1048. The evaluation was performed using EYPC liposomes which contain Pyranine as a fluorescent substance and DPX as a quencher.
3,000 nmol of EYPC dissolved in chloroform was measured and placed in a 10-mL eggplant-shaped flask, and the EYPC was made into thin film by means of a rotary evaporator. To the flask was added 500 μL of a Pyranine solution (Pyranine: 35 mM, DPX: 50 mM, MES: 25 mM, pH 7.4), followed by dispersion using an ultrasonic irradiator (USC-J), and then the resulting dispersion was passed through a polycarbonate film having a pore diameter of 100 nm by use of an extruder, so as to make the particle diameter uniform. The resulting dispersion underwent substitution of the outer aqueous layer using MES Buffer and G100 column, to obtain a dispersion of EYPC liposomes embracing the fluorescent substance. The concentration of the phospholipid was determined using phospholipid C-test Wako, and it was adjusted with MES Buffer so that phospholipid became 1.0 mmol/L.
20 μL of the dispersion of EYPC liposomes adjusted in concentration and 20 μL of an evaluation sample dispersion were added to 2960 μL of pH-adjusted MES Buffer, and the resulting mixture was subjected to incubation at 37° C. for 90 or 30 minutes (Values resulting from incubation for 90 minutes are adopted in Examples, unless otherwise specified.). Fluorescence at Ex461 nm and Em512 nm was observed by use of a spectrophotometer FP-6500 to monitor the leakage.
Note that the leakage was calculated assuming that the value in the case of using the dispersion alone of EYPC liposomes is 0% and the value in the case of adding 30 μL of 10-fold diluted Triton-X100 is 100%. Specifically, the leakage was calculated according to the following formula. Note that in the following formula, L represents the intensity of fluorescence measured, L0 represents the intensity of fluorescence of only the dispersion of EYPC liposomes embracing the fluorescent substance, and L100 represents the intensity of fluorescence in the case of adding Triton-X100.
First, the influence on the effect of promoting the membrane-disruption function was examined. […] After incubating the evaluation samples overnight, part (20 μL) of each evaluation sample was put to a release test. The release test was conducted according to the above-described release test.

[2] = tested on: cell-mediated immunity (CTL); assay: Induction of cell-mediated immunity (CTL) in immunized mice, IFNγ ELIspot method on spleen cells; assay type: in vivo, C57BL/6N mouse
Method: Administration was performed under anesthesia. In the case of subcutaneous administration, it is carried out by subcutaneous injection, 100 μL/head, at one position on the back. […] As for the pH-sensitive carrier, a fundamental dose concentration for the amphipathic substance was 100 nmol/head, that for the pH-sensitive compound was 10 to 640 nmol/head, and part thereof was administered in diluted conditions. As the antigen, OVA protein or OVA peptide was used, the dose being 80 μg/head. […] In the case of evaluating cell-mediated immunity, administration was performed once and assay was conducted seven days after the administration.
The mouse was euthanized on the seventh day after the last administration and had its spleen extracted. After addition of 3.0 mL of RPMI medium containing 10% serum, the spleen was treated by the BD Falcon cell strainer, to obtain a suspension of cells. The cells were subjected to hemolysis with RBC lysis buffer, followed by washing with RPMI medium containing 10% serum. The cells were dispersed into RPMI medium containing 10% serum, after which the number of cells was counted, and a dispersion of spleen cells was obtained.
The ELIspot method was carried out by using the Mouse IFNγ ELISPOT Set. One day before cell inoculation, the 96-well ELispot plate was allowed to adsorb the detection antibody attached to the kit, to make the plate. The thus made plate was washed with RPMI medium containing 10% serum, after which 200 μL of 10% serum-containing RPMI medium was added thereto, and the plate was left to stand at 37° C. for two hours for blocking. The plate was washed with 10% serum-containing RPMI medium. In the case where the antigen undergoes restimulation, 100 μL of 10% serum-containing RPMI medium containing 40 μg/mL of OVA peptide was added to the plate. […]
The candidate substances were all used in an amount of 10 μg per mouse, and OVA protein was used as the antigen in an amount of 80 μg per mouse. […] Induction of cell-mediated immunity was evaluated according to the ELispot method described hereinabove. […]

[3] = subcutaneous, once, assay after seven days, candidate substance/alum 10 μg, OVA protein 80 μg per mouse, carrier where used 100 nmol DLPC + 160 nmol deoxycholic acid, restimulation with OVA peptide

| Molecule | pH 5.0 Leakage (%) Lb5.0 Amphipathic substance alone ([1]; pH 5.0) | pH 7.4 Leakage (%) Lb7.4 Amphipathic substance alone [1] | other results |
| --- | --- | --- | --- |
| Cc1c(C)c2c(c(C)c1O)CCC(C)(CCCC(C)CCCC(C)CCCC(C)C)O2 (racemic) [Tocopherol, DL-α-tocopherol] | 1.2% | 1.7% | induction of cell-mediated immunity (spot formation, ELIspot) ([2]; mouse, in vivo, sc): did not induce cell-mediated immunity |
| CC(=O)Oc1c(C)c(C)c2c(c1C)CCC(C)(CCC[C@H](C)CCC[C@H](C)CCCC(C)C)O2 (mixture of isomers) [tocopherol acetate, DL-α-tocopherol acetate, reference compound] |  |  | induction of cell-mediated immunity (spot formation, ELIspot) [2, 3]: did not induce cell-mediated immunity |
| C[C@H](CCC(=O)O)[C@H]1CC[C@H]2[C@@H]3[C@H](O)C[C@@H]4C[C@H](O)CC[C@]4(C)[C@H]3CC[C@]12C [Chenodeoxycholic acid] |  |  | pH 5.0 Leakage (%) La5.0 pH-sensitive compound alone ([1]; pH 5.0): 3.1%; pH 7.4 Leakage (%) La7.4 pH-sensitive compound alone [1]: 1.1% |
| CCCCCCCCCC(=O)OC[C@H](COP(=O)([O-])OCC[N+](C)(C)C)OC(=O)CCCCCCCCC [DDPC, 1,2-didecanoyl-sn-glycero-3-phosphatidylcholine] | 10.1% | 8.4% |  |
| CCCCCCCCCCCC(=O)OC[C@H](COP(=O)([O-])OCC[N+](C)(C)C)OC(=O)CCCCCCCCCCC [DLPC, 1,2-dilauroyl-sn-glycero-3-phosphatidylcholine] |  |  | pH 5.0 Leakage (%) Lb5.0 Amphipathic substance (DLPC) alone ([1]; pH 5.0, DLPC alone): 1.9% |
| CCCCCCCCCCCCCCCCCC(=O)OCC(CO)OC(=O)CCCCCCCCCCCCCCCCC (centres unmarked) [Glycerol distearate, glycerol distearate] | 4.0% | 0.3% |  |
| CCCCCCCC/C=C\CCCCCCCC(=O)OCC(O)CO (centres unmarked) [Glycerol monooleate, glycerol monooleate] | 6.0% | 4.1% |  |
| CC(CCC(=O)NCC(=O)O)C1CCC2C3CCC4CC(O)CCC4(C)C3CC(O)C12C (centres unmarked) [Glycodeoxycholic acid] |  |  | pH 5.0 Leakage (%) La5.0 pH-sensitive compound alone ([1]; pH 5.0): 5.9%; pH 7.4 Leakage (%) La7.4 pH-sensitive compound alone [1]: 1.6% |
| CC1(C)[C@@H](O[C@H]2O[C@H](C(=O)O)[C@@H](O)[C@H](O)[C@H]2O[C@@H]2O[C@H](C(=O)O)[C@@H](O)[C@H](O)[C@H]2O)CC[C@]2(C)[C@H]3C(=O)C=C4[C@@H]5C[C@@](C)(C(=O)O)CC[C@]5(C)CC[C@@]4(C)[C@]3(C)CC[C@@H]12 [Glycyrrhizinic acid] | 4.0% | 0.3% | pH 5.0 Leakage (%) La5.0 pH-sensitive compound alone ([1]; pH 5.0): 3.0%; pH 7.4 Leakage (%) La7.4 pH-sensitive compound alone [1]: 0.8% |
| C[C@H](CCC(=O)O)[C@H]1CC[C@H]2[C@@H]3C[C@H](O)[C@@H]4C[C@H](O)CC[C@]4(C)[C@H]3CC[C@]12C [Hyodeoxycholic acid] |  |  | pH 5.0 Leakage (%) La5.0 pH-sensitive compound alone ([1]; pH 5.0): 2.8%; pH 7.4 Leakage (%) La7.4 pH-sensitive compound alone [1]: 0.6% |
| CCCCCCCCCCCC(=O)OCC(O)COC(=O)CCCCCCCCCCC [α,α′-dilaurin] | 0.8% | 1.0% |  |
| Polyoxyethylene 10 castor oil [Peg (10) castor oil] | 6.2% | 3.4% |  |
| polyoxyethylene sorbitan monolauric acid ester [Tween 20] | 48.8% | 50.4% |  |
| polyoxyethylene sorbitan monooleic acid ester [Tween 80] | 1.6% | 0.6% |  |
| polyoxyethylene sorbitan monopalmitic acid ester [Tween 40] | 11.5% | 8.3% |  |
| polyoxyethylene sorbitan monostearic acid ester [Tween 60] | 6.7% | 3.8% |  |
| sorbitan monooleate [Span80] | 7.3% | 4.4% |  |
| sorbitan palimitic acid ester [Span40] | 1.6% | 0.6% |  |
| sorbitan stearic acid ester [Span60] | 4.3% | 1.6% |  |
| sorbitan trioleic acid ester [Span85] | 2.0% | 1.8% |  |
| sorbitan tristearic acid ester [Span65] | 4.2% | 1.5% |  |
| B1 |  |  | induction of cell-mediated immunity (spot formation, ELIspot) [2, 3]: did not induce cell-mediated immunity |
